Test results from ChEMBL document CHEMBL5137080, “Discovery of Novel 7-Hydroxy-5-oxo-4,5-dihydrothieno[3,2-b]pyridine-6-carboxamide Derivatives with Potent and Selective Antifungal Activity against Cryptococcus Species” (J Med Chem, 2022).
Converted amounts (≈) assume the structure as drawn.

Columns and labels:
Aspergillus fumigatus = assay: Antifungal activity against Aspergillus fumigatus 7544 assessed as fungal growth inhibition incubated for 48 hrs by broth microdilution method; assay type: functional
Candida albicans = assay: Antifungal activity against Candida albicans SC5314 assessed as fungal growth inhibition incubated for 48 hrs by broth microdilution method; assay type: functional
Cryptococcus neoformans = assay: Antifungal activity against Cryptococcus neoformans H99 assessed as fungal growth inhibition incubated for 72 hrs by broth microdilution method; assay type: functional
[1] = Cytotoxicity against human HUVEC cells assessed as inhibition on cell growth incubated for 24 hrs by CCK-8 assay; assay type: toxicity, cell-based
[2] = Cytotoxicity against human Caco-2 cells assessed as cell viability at 64 ug/ml incubated for 24 hrs by CCK-8 assay; assay type: toxicity, cell-based; conditions: at 64 µg/mL, read-out: Activity
[3] = Cytotoxicity against human HUVEC cells assessed as cell viability at 64 ug/ml incubated for 24 hrs by CCK-8 assay; assay type: toxicity, cell-based; conditions: at 64 µg/mL, read-out: Activity
[4] = Hemolytic activity in rabbit RBC at 32 ug/ml incubated for 1 hr by spectrophotometry; assay type: toxicity, cell-based, Oryctolagus cuniculus, Erythrocyte; conditions: red blood cells, at 32 µg/mL, read-out: Activity
[5] = Hemolytic activity in rabbit RBC at 64 ug/ml incubated for 1 hr by spectrophotometry; assay type: toxicity, cell-based, Oryctolagus cuniculus, Erythrocyte; conditions: red blood cells, at 64 µg/mL, read-out: Activity
[6] = Cytotoxicity against human HUVEC cells assessed as cell viability at 256 ug/ml incubated for 24 hrs by CCK-8 assay; assay type: toxicity, cell-based; conditions: at 256 µg/mL, read-out: Activity
[7] = Cytotoxicity against human Caco-2 cells assessed as cell viability at 256 ug/ml incubated for 24 hrs by CCK-8 assay; assay type: toxicity, cell-based; conditions: at 256 µg/mL, read-out: Activity
[8] = Hemolytic activity in rabbit RBC at 16 ug/ml incubated for 1 hr by spectrophotometry; assay type: toxicity, cell-based, Oryctolagus cuniculus, Erythrocyte; conditions: red blood cells, at 16 µg/mL, read-out: Activity

SMILES	MIC (Aspergillus fumigatus) [µg/mL]	MIC (Candida albicans) [µg/mL]	MIC (Cryptococcus neoformans) [µg/mL]	IC50 at 24 h [1] [µg/mL]	other results
O=C(NCc1ccccn1)c1c(O)c2sccc2n(Cc2ccccc2)c1=O	16 (≈ 40.9 µM)	> 64	2 (≈ 5.11 µM)		
CCCCCNC(=O)c1c(O)c2sccc2n(Cc2ccccc2)c1=O	> 64	> 64	0.5 (≈ 1.35 µM)	> 64	
O=C(NCc1cccc(Cl)c1)c1c(O)c2sccc2n(Cc2ccccc2)c1=O	> 64	> 64	2 (≈ 4.71 µM)		
O=C(NCCc1ccccc1)c1c(O)c2sccc2n(Cc2ccccc2)c1=O	> 64	> 64	4 (≈ 9.89 µM)		
O=C(NCc1ccc(F)cc1F)c1c(O)c2sccc2n(Cc2ccccc2)c1=O	> 64	> 64	2 (≈ 4.69 µM)		
CC(C)NC(=O)c1c(O)c2sccc2n(Cc2ccccc2)c1=O	> 64	> 64	2 (≈ 5.84 µM)	> 64	
C#CCNC(=O)c1c(O)c2sccc2n(Cc2ccccc2)c1=O	> 64	> 64	16 (≈ 47.3 µM)	> 64	
COCCNC(=O)c1c(O)c2sccc2n(Cc2ccccc2)c1=O	32 (≈ 89.3 µM)	> 64	2 (≈ 5.58 µM)	16 (≈ 44.6 µM)	
O=C(NCc1ccncc1)c1c(O)c2sccc2n(Cc2ccccc2)c1=O	8 (≈ 20.4 µM)	64 (≈ 163 µM)	2 (≈ 5.11 µM)		
CCCNC(=O)c1c(O)c2sccc2n(Cc2ccccc2)c1=O	> 64	> 64	2 (≈ 5.84 µM)	> 64	
C[C@@H]1[C@H](O)[C@@H](C)/C=C/C=C/C=C/C=C/C=C/C=C/C=C/[C@H](O[C@@H]2O[C@H](C)[C@@H](O)[C@H](N)[C@@H]2O)C[C@@H]2O[C@](O)(C[C@@H](O)C[C@@H](O)[C@H](O)CC[C@@H](O)C[C@@H](O)CC(=O)O[C@H]1C)C[C@H](O)[C@H]2C(=O)O [AMPHOTERICIN B]	2 (≈ 2.16 µM)	0.125 (≈ 0.135 µM)	1 (≈ 1.08 µM)	16 (≈ 17.3 µM)	viability at 24 h, 64 ug/ml [2]: 64.8%; viability at 24 h, 64 ug/ml [3]: 68.2%; hemolysis at 1 h, 32 ug/ml [4]: > 95%; hemolysis at 1 h, 64 ug/ml [5]: 100%; viability at 24 h, 256 ug/ml [6]: 13.7%; viability at 24 h, 256 ug/ml [7]: 28.7%; hemolysis at 1 h, 16 ug/ml [8]: 8.06%
CC(C)CNC(=O)c1c(O)c2sccc2n(Cc2ccccc2)c1=O	> 64	> 64	16 (≈ 44.9 µM)		
CCC(C)NC(=O)c1c(O)c2sccc2n(Cc2ccccc2)c1=O (stereo not drawn)	64 (≈ 180 µM)	> 64	4 (≈ 11.2 µM)		
O=C(Nc1ccccc1)c1c(O)c2sccc2n(Cc2ccccc2)c1=O	> 64	> 64	> 64		
O=C(NC1CCCCC1)c1c(O)c2sccc2n(Cc2ccccc2)c1=O	> 64	> 64	8 (≈ 20.9 µM)	> 64	
CSc1ccc(CNC(=O)c2c(O)c3sccc3n(Cc3ccccc3)c2=O)cc1	> 64	> 64	2 (≈ 4.58 µM)		
CC(NC(=O)c1c(O)c2sccc2n(Cc2ccccc2)c1=O)c1ccccc1 (stereo not drawn)	> 64	> 64	4 (≈ 9.89 µM)		
C=CCCNC(=O)c1c(O)c2sccc2n(Cc2ccccc2)c1=O	> 64	> 64	0.25 (≈ 0.705 µM)	> 64	
O=C(NCCc1c[nH]c2ccccc12)c1c(O)c2sccc2n(Cc2ccccc2)c1=O	> 64	> 64	8 (≈ 18 µM)		
O=C(NCCO)c1c(O)c2sccc2n(Cc2ccccc2)c1=O	32 (≈ 92.9 µM)	> 64	8 (≈ 23.2 µM)	64 (≈ 186 µM)	
O=C(NCCc1cccs1)c1c(O)c2sccc2n(Cc2ccccc2)c1=O	> 64	> 64	2 (≈ 4.87 µM)		
O=C(NCCCO)c1c(O)c2sccc2n(Cc2ccccc2)c1=O	32 (≈ 89.3 µM)	> 64	4 (≈ 11.2 µM)	64 (≈ 179 µM)	
O=C(NCc1ccc(F)cc1)c1c(O)c2sccc2n(Cc2ccccc2)c1=O	> 64	> 64	4 (≈ 9.79 µM)		

SMILES	MIC (Aspergillus fumigatus) [µg/mL]	MIC (Candida albicans) [µg/mL]	MIC (Cryptococcus neoformans) [µg/mL]	IC50 at 24 h [1] [µg/mL]	other results
O=C(NCc1cccs1)c1c(O)c2sccc2n(Cc2ccccc2)c1=O	> 64	> 64	2 (≈ 5.04 µM)		
CC1CCN(CCNC(=O)c2c(O)c3sccc3n(Cc3ccccc3)c2=O)CC1	32 (≈ 75.2 µM)	32 (≈ 75.2 µM)	32 (≈ 75.2 µM)		
COc1cccc(CNC(=O)c2c(O)c3sccc3n(Cc3ccccc3)c2=O)c1	> 64	> 64	2 (≈ 4.76 µM)		
Cc1ccccc1CNC(=O)c1c(O)c2sccc2n(Cc2ccccc2)c1=O	> 64	> 64	2 (≈ 4.94 µM)		
O=C(NCC1CCCO1)c1c(O)c2sccc2n(Cc2ccccc2)c1=O (stereo not drawn)	16 (≈ 41.6 µM)	32 (≈ 83.2 µM)	4 (≈ 10.4 µM)		
Cc1ccc(CNC(=O)c2c(O)c3sccc3n(Cc3ccccc3)c2=O)o1	> 64	> 64	2 (≈ 5.07 µM)		
CCOCCNC(=O)c1c(O)c2sccc2n(Cc2ccccc2)c1=O	16 (≈ 43 µM)	> 64	0.5 (≈ 1.34 µM)	8 (≈ 21.5 µM)	
O=C(NN1CCCCC1)c1c(O)c2sccc2n(Cc2ccccc2)c1=O	> 64	> 64	16 (≈ 41.7 µM)	> 64	
O=C(NCc1ccccc1F)c1c(O)c2sccc2n(Cc2ccccc2)c1=O	> 64	> 64	2 (≈ 4.9 µM)		
O=C(NCCN1CCOCC1)c1c(O)c2sccc2n(Cc2ccccc2)c1=O	64 (≈ 155 µM)	32 (≈ 77.4 µM)	8 (≈ 19.3 µM)		
O=C(NCC1CC1)c1c(O)c2sccc2n(Cc2ccccc2)c1=O	> 64	> 64	1 (≈ 2.82 µM)		
CN(C)c1ccc(CNC(=O)c2c(O)c3sccc3n(Cc3ccccc3)c2=O)cc1	> 64	> 64	4 (≈ 9.23 µM)		
CCCCCCNC(=O)c1c(O)c2sccc2n(Cc2ccccc2)c1=O	> 64	> 64	0.5 (≈ 1.3 µM)	> 64	
O=C(NCCCCO)c1c(O)c2sccc2n(Cc2ccccc2)c1=O	32 (≈ 85.9 µM)	> 64	2 (≈ 5.37 µM)	16 (≈ 43 µM)	
O=C(NCc1cc(F)cc(F)c1)c1c(O)c2sccc2n(Cc2ccccc2)c1=O	> 64	> 64	2 (≈ 4.69 µM)		
CC(NC(=O)c1c(O)c2sccc2n(Cc2ccccc2)c1=O)c1ccc(F)cc1 (stereo not drawn)	> 64	> 64	2 (≈ 4.73 µM)		
O=C(NN1CCOCC1)c1c(O)c2sccc2n(Cc2ccccc2)c1=O	> 64	> 64	> 64	> 64	
O=C(NC1CCCC1)c1c(O)c2sccc2n(Cc2ccccc2)c1=O	> 64	> 64	4 (≈ 10.9 µM)	> 64	
O=C(NCc1ccccc1Cl)c1c(O)c2sccc2n(Cc2ccccc2)c1=O	> 64	> 64	2 (≈ 4.71 µM)		
COc1ccc(CNC(=O)c2c(O)c3sccc3n(Cc3ccccc3)c2=O)cc1	> 64	> 64	2 (≈ 4.76 µM)		
O=C(NCc1ccc(Cl)cc1)c1c(O)c2sccc2n(Cc2ccccc2)c1=O	> 64	> 64	1 (≈ 2.35 µM)		
Cc1ccc(CNC(=O)c2c(O)c3sccc3n(Cc3ccccc3)c2=O)cc1C	> 64	> 64	2 (≈ 4.78 µM)		
